# Reference: EPA's ToxValDB 9.5 (doi:10.2903/j.efsa.2020.5755)
# Columns and labels:
# Rattus norvegicus = conditions: for LD50: acute, mortality
# Tagia sp. = conditions: chronic/long-term; growth
# Canidae = conditions: chronic; duration: 1 years; Dog Other
# Colinus virginianus = conditions: reproduction developmental
# Daphnia magna = conditions: chronic/long-term; duration: 28 days; reproduction
# Folsomia candida = conditions: chronic/long-term; duration: 28 days; reproduction
# Landoltia sp. = conditions: chronic/long-term; duration: 7 days; frond number
# Xenopus laevis = conditions: chronic/long-term, development
# Oncorhynchus mykiss = conditions: acute; duration: 96 hours; mortality
# Anas platyrhynchos = conditions: reproductive
# Apis mellifera = conditions: acute, mortality
# Coturnix japonica = conditions: acute; oral; mortality
# Neomysis kadiakensis = conditions: chronic/long-term; duration: 39 days; other
# Pimephales promelas = conditions: chronic/long-term; reproduction
# Typhlodromus pyri = experiment: LR50; higher = less toxic; conditions: mortality
smiles,measurement,setting,value
"S=C1SSC2=NCCN12 [5,6-Dihydro-3H-imidazo[2,1-c]-1,2,4-dithiazole-3-thione]",LD50,Rattus norvegicus; oral,240 mg/kg-day
same,NOEC,Tagia sp.,20 mg/kg
"S=C1NCCN1 [4,5-Dihydro-2-mercaptoimidazole]",NOAEL,Canidae,0.2 mg/kg-day
same,NOEL,Colinus virginianus,1.8 mg/kg-day
same,NOEC,Daphnia magna,2000 µg/L
same,NOEC,Folsomia candida,10.6 mg/kg
same,NOEC,Landoltia sp.,960000 µg/L
same,NOAEL,Rattus norvegicus; chronic,2 mg/kg-day
same,NOAEL,"Rattus norvegicus; developmental, development",5 mg/kg-day
same,NOAEL,Rattus norvegicus; reproduction developmental,0.2 mg/kg-day
same,NOEC,Tagia sp.,24 mg/kg
same,NOEC,Xenopus laevis; duration: 28 days,10000 µg/L
same,NOEC,Xenopus laevis; duration: 90 days,1000 µg/L
O=C1NCCN1 [Ethylene urea],LC50,Oncorhynchus mykiss,> 122 µg/mL
same,LD50,Rattus norvegicus; oral,> 5000 mg/kg-day
same,NOAEL,"Rattus norvegicus; reproduction developmental, oral, reproduction",37 mg/kg-day
S=C([S-])NCCNC(=S)[S-].S=C([S-])NCCNC(=S)[S-].[Mn+2].[Zn+2] [Mancozeb],NOEL,Anas platyrhynchos,18.6 mg/kg-day
same,LD50,Apis mellifera; dermal,162 µg/piece
same,LD50,"Apis mellifera; oral, unspecified",141 µg/piece
same,LD50,Coturnix japonica,> 2000 mg/kg-day
same,NOEC,Neomysis kadiakensis,1.64 µg/L
same,LC50,Oncorhynchus mykiss,0.074 µg/mL
same,NOEC,Pimephales promelas,1.35 µg/L
same,LD50,Rattus norvegicus; oral,> 2000 mg/kg-day
same,NOAEL,Rattus norvegicus; chronic,2 mg/kg-day
same,NOAEL,"Rattus norvegicus; subchronic, duration: 90 days, oral, clinical chemistry",6.8 mg/kg-day
same,NOEC,Tagia sp.,10 mg/kg
same,LR50,"Typhlodromus pyri; chronic/long-term, duration: 14 days",107 g/ha
same,LR50,Typhlodromus pyri; not reported,26.7 g/ha
